Reference: US20100035858A1, “Novel Compositions and Methods for Binding and Inhibiting 5-HT4 Receptor” (Immune Control, Inc., priority 2008, published 2010)
Entries after “also recorded” stand apart in the source; their conditions may differ. Read-outs that look alike come from different tables or passages of the source.

Tests used:
MDR1-MDCK [1] = experiment: MDR1-MDCK Permeability (potential to cross the blood-brain barrier); conditions: for Brain Penetration Classification: from A-B Papp and efflux ratio
[2] = test system: rat model of collagen-induced arthritis; experiment: Rat model of collagen-induced arthritis, ankle diameter; type: in vivo; conditions: for reduction of ankle diameter: 10 mg/kg ip daily, about 3 days, caliper measurement; for efficacy in reducing ankle diameter compared with Enbrel: rheumatoid arthritis rat model, versus Enbrel
Procedure: The next set of experiments was designed to test the ability of the compounds of the invention on a rat model of collagen-induced arthritis. Briefly, Female Lewis rats were immunized with bovine type 2 collagen 2 mg/mL in 0.01N HAc mixed 1:1 w/ FIA injected id 0.1 mL at each of three sites on back (Rosloniec, E. F., A. H. Kang, L. K. Myers, M. A. Cremer. 1996. Collagen-induced arthritis. R. Coico, and E. Shevach, eds. Current Protocols in Immunology 15.5.1. Weily & Sons, New York.).
FIG. 2 depicts a schematic of the collagen-induced arthritis protocol. Briefly, a test compound of the invention is delivered ip at 10 mg/kg daily, for about 3 days.
FIG. 4 depicts ICI 1260, 1259, 848, 849, 761, 715, and 847 with respect to Enbrel. Additional testing for the effectiveness of compounds ICI 1260, 1259, 848, 849, 761, 715, and 847 at various concentrations (10 mg/kg, 2 mg/kg, 0.4 mg/kg) were conducted, as illustrated in FIGS. 5A-5G. A dose response curve was constructed to illustrate the efficacy of the seven compounds (FIG. 6).

Female Lewis rats = experiment: Toxicity in Female Lewis rats; type: in vivo; conditions: 100 mg/kg ip, in comparison with PBS control
Procedure: The next set of experiments was designed to determine the toxicity of the compounds. Each compound was administered to Female Lewis rats at a dose of 100 mg/kg via ip administration.

[3] = test system: B-cell neoplastic cell line RPMI 8226; experiment: Inhibition of proliferation of RPMI cells; type: cell-based; conditions: RPMI cell viability, FIG. 1
Description: The next set of experiments was designed to assess compounds that have low levels of brain penetration for the ability of the test compounds to inhibit cellular proliferation. An exemplary in vitro assay is to screen for the ability of the test compounds to inhibit proliferation of the B-cell neoplastic cell line RPMI 8226 (a plasmacytoma derived from a multiple myeloma patient (Matsuoka, et al., 1967, Proc. Soc. Exp. Biol. Med. 125: 1246-1250). However other cell line can be used such as, U266 (established from an IgE-secreting myeloma patient (Nilsson, et al., 1970, Clin. Exp. Immunol., 7: 477-489) and ARH77 (an EBV transformed plasma cell leukemia (Burk, et al., 1978, Cancer Res. 38: 2508-2513).
FIG. 1 is a graph depicting the effects on the test compounds on RPMI cell viability.

[4] = target: histamine type 1 receptor (Homo sapiens, UniProt P35367); experiment: Binding to non-5-HT receptors: histamine type 1 receptor; conditions: FIG. 12
Procedure: (§1) The methods employed in this study have been adapted from the scientific literature to maximize reliability and reproducibility. Where presented, IC50 values were determined by a non-linear, least squares regression analysis using the DATA ANALYSIS TOOLBOX (MDL Information Systems, San Leandro, Calif., USA). Where inhibition constants (Ki) are presented, the Ki values were calculated using the equation of Cheng and Prusoff (Cheng, Y., Prusoff, W. H., Biochem. Pharmacol. 22:3099-3108, 1973) or equivalent using the observed IC50 of the tested compound, the concentration of ligand employed in the assay, and historical values for the KD of the ligand.
The next set of experiments was designed to assess the selective binding of the test compounds to non-5-HT receptors. The compounds tested are as follows: ICI-735, 848, 849, 1259, and 1260. […] It was also observed that the compounds that bound well to 5-HT4 receptor also bound well to histamine type 1 receptor.

MDR1-MDCK [5] = test system: MDR1-MDCK
5-HT2A receptor = 5-HT2A receptor (Homo sapiens, UniProt P28223); experiment: 5-HT2A receptor binding; conditions: versus fluphenazine (ICI-1175), FIG. 8
Procedure: as §1
(§2) The experiments include contacting a serotonin type 1B, 2A, 2B, 2C, 3, 4, 6, and 7 receptor with a test compound and comparing the level of binding of serotonin or a control ligand with that serotonin type 1B, 2A, 2B, 2C, 3, 4, 6, and 7 receptor with the level of serotonin binding or control ligand binding with an otherwise identical serotonin type 1B, 2A, 2B, 2C, 3, 4, 6, and 7 receptor not contacted with the test compound. […] The skilled artisan would also appreciate, in view of the disclosure provided herein, that standard binding assays known in the art, or those to be developed in the future, can be used to assess the binding of serotonin or a control ligand with a serotonin type 1B. 2A, 2B, 2C, 3, 4, 6, and 7 receptor in the presence or absence of the test compound to identify a useful compound.
(§3) The next set of experiments was designed to assess the selective binding of the test compounds to 5-HT receptors. ICI-848, ICI-1259, and ICI-1260 were tested against fluphenazine (ICI-1175) to determine selective binding to 5-HT receptors.

5-HT1A receptor = target: T1, 5-HT1A receptor (Homo sapiens, UniProt P08908); experiment: 5-HT1A receptor binding; conditions: versus fluphenazine (ICI-1175), FIG. 8
T1 sequence (P08908 1-422): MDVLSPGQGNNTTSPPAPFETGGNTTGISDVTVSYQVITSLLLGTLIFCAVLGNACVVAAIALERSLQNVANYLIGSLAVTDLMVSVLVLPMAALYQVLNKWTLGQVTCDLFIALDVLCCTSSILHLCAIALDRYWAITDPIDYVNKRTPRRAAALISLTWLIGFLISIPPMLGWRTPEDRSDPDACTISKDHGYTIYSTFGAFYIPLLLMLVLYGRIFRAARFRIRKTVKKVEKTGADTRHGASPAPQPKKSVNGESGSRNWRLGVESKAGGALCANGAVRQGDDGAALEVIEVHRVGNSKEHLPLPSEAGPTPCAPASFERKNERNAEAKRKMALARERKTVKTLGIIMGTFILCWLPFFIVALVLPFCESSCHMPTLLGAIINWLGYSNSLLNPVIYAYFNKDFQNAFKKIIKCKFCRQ
Procedure: as §1, §3

5-HT4 receptor = 5-HT4 receptor (Homo sapiens, UniProt Q13639); experiment: 5-HT4 receptor binding; conditions: versus fluphenazine (ICI-1175), FIG. 8
Procedure: as §1, §2, §3
The next set of experiments was designed to assess the Ki values of the tested compounds.

Sequence of histamine type 1 receptor (P35367 whole entry): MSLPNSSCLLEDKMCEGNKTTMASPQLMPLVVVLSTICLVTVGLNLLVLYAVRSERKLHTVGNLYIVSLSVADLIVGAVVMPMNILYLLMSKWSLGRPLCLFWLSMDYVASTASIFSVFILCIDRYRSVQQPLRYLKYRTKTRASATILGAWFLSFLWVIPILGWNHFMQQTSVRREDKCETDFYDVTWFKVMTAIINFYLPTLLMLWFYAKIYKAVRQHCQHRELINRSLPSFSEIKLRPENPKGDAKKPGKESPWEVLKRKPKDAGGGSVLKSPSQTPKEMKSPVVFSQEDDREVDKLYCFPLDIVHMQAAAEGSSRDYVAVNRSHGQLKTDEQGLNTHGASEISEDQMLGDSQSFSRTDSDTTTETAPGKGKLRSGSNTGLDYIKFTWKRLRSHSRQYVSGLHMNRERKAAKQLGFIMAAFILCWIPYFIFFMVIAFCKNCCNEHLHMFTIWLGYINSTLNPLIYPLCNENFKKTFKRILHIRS
Sequence of 5-HT2A receptor (P28223 whole entry): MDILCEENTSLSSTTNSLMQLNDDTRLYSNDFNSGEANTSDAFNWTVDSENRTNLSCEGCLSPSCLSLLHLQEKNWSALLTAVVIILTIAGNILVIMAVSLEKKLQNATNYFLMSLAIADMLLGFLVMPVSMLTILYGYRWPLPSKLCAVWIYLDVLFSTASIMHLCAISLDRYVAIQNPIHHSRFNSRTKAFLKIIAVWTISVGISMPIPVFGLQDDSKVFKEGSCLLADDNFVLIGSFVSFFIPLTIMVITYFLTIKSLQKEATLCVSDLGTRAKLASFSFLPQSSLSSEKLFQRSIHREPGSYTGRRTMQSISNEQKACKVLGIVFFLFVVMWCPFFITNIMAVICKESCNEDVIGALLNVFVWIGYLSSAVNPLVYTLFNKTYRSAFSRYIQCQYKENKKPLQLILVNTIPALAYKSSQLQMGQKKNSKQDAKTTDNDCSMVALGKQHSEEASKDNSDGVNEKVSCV
Sequence of 5-HT4 receptor (Q13639 whole entry): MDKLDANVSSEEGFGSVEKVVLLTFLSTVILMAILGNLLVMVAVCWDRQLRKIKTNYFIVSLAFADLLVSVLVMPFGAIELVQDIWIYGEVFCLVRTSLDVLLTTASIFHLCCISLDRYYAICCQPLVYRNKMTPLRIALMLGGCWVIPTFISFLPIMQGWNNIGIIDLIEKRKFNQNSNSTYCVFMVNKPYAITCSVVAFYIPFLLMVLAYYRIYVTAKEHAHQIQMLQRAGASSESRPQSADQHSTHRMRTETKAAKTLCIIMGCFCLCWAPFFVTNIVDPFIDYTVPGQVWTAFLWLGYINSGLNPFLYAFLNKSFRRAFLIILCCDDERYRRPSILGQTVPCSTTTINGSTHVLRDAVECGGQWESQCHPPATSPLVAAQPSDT

FC(F)(F)c1ccc2c(c1)N(CCCN1CCNCC1)c1ccccc1S2 [ICI-00685]
Brain Penetration Classification (MDR1-MDCK [1]): Low (3) A-B Papp > 3.0 and Efflux Ratio > 10: Low)

CN(C)S(=O)(=O)c1ccc2c(c1)N(CCCN1CCN(CCN)CC1)c1ccccc1S2 [ICI-00715]
reduction of ankle diameter [2]: decrease the ankle diameter to a desirable level | efficacy in reducing ankle diameter compared with Enbrel [2]: more effective in reducing the ankle diameter than Enbrel | toxicity (Female Lewis rats): not toxic | ability to inhibit proliferation of RPMI cells [3]: able to inhibit the proliferation of RPMI cells

NCC(=O)NCCN1CCN(CCCN2c3ccccc3Sc3ccc(C(F)(F)F)cc32)CC1 [ICI-00735]
reduction of ankle diameter [2]: did not have a desirable reduction of ankle diameter | binding to histamine type 1 receptor [4]: able to bind histamine type 1 receptor | % Recovery A-B (MDR1-MDCK [5]): 47% | % Recovery B-A (MDR1-MDCK [5]): 33% | Papp A-B (MDR1-MDCK [5]): 0.23 ×10⁻⁶ cm/s | Papp B-A (MDR1-MDCK [5]): 28.6 ×10⁻⁶ cm/s | Efflux (MDR1-MDCK [5]; dog): 124

CN(C)CCN1CCN(CCCN2c3ccccc3Sc3ccc(C(F)(F)F)cc32)CC1 [ICI-00738]
toxicity (Female Lewis rats): not toxic

CNCC(=O)NCCN1CCN(CCCN2c3ccccc3Sc3ccc(C(F)(F)F)cc32)CC1 [ICI-00758]
toxicity (Female Lewis rats): not toxic | Brain Penetration Classification (MDR1-MDCK [1]): Low (3) A-B Papp > 3.0 and Efflux Ratio > 10: Low)

NCCCN1CCN(CCCN2c3ccccc3Sc3ccc(C(F)(F)F)cc32)CC1 [ICI-00760]
Brain Penetration Classification (MDR1-MDCK [1]): Low (3) A-B Papp > 3.0 and Efflux Ratio > 10: Low)

NCC(N)C(=O)NCCN1CCN(CCCN2c3ccccc3Sc3ccc(C(F)(F)F)cc32)CC1 (stereo not shown) [ICI-761]
reduction of ankle diameter [2]: decrease the ankle diameter to a desirable level | efficacy in reducing ankle diameter compared with Enbrel [2]: more effective in reducing the ankle diameter than Enbrel | ability to inhibit proliferation of RPMI cells [3]: able to inhibit the proliferation of RPMI cells

NCC(=O)NCCCN1CCN(CCCN2c3ccccc3Sc3ccc(C(F)(F)F)cc32)CC1 [ICI-00822]
Brain Penetration Classification (MDR1-MDCK [1]): Low (3) A-B Papp > 3.0 and Efflux Ratio > 10: Low)

CNCC(=O)NCCCN1CCN(CCCN2c3ccccc3Sc3ccc(C(F)(F)F)cc32)CC1 [ICI-00823]
reduction of ankle diameter [2]: decrease the ankle diameter to a desirable level | toxicity (Female Lewis rats): not toxic

FC(F)(F)c1ccc2c(c1)N(CCCC1CCNCC1)c1ccccc1S2 [ICI-00824]
toxicity (Female Lewis rats): not toxic

NCCN1CCC(CCCN2c3ccccc3Sc3ccc(C(F)(F)F)cc32)CC1 [ICI-00846]
Brain Penetration Classification (MDR1-MDCK [1]): Low (3) A-B Papp > 3.0 and Efflux Ratio > 10: Low)

NCCCN1CCC(CCCN2c3ccccc3Sc3ccc(C(F)(F)F)cc32)CC1 [ICI-00847]
reduction of ankle diameter ([2]; listed as ICI-847): decrease the ankle diameter to a desirable level; also recorded: most desirable reduction of ankle diameter | efficacy in reducing ankle diameter compared with Enbrel [2]: more effective in reducing the ankle diameter than Enbrel | Brain Penetration Classification (MDR1-MDCK [1]): Low (3) A-B Papp > 3.0 and Efflux Ratio > 10: Low) | ability to inhibit proliferation of RPMI cells ([3]; listed as ICI-847): able to inhibit the proliferation of RPMI cells

NCC(=O)NCCN1CCC(CCCN2c3ccccc3Sc3ccc(C(F)(F)F)cc32)CC1 [ICI-00848]
binding to 5-HT2A receptor compared to fluphenazine (5-HT2A receptor): decreased binding | reduction of ankle diameter ([2]; listed as ICI-848): decrease the ankle diameter to a desirable level; also recorded: most desirable reduction of ankle diameter | efficacy in reducing ankle diameter compared with Enbrel [2]: more effective in reducing the ankle diameter than Enbrel | binding to histamine type 1 receptor [4]: able to bind histamine type 1 receptor | toxicity (Female Lewis rats): not toxic | binding to 5-HT1A receptor compared to fluphenazine (5-HT1A receptor): decreased binding | ability to inhibit proliferation of RPMI cells [3]: able to inhibit the proliferation of RPMI cells | binding to 5-HT4 receptor compared to fluphenazine (5-HT4 receptor): increased binding

CNCC(=O)NCCN1CCC(CCCN2c3ccccc3Sc3ccc(C(F)(F)F)cc32)CC1 [ICI-00849]
reduction of ankle diameter ([2]; listed as ICI-849): decrease the ankle diameter to a desirable level; also recorded: most desirable reduction of ankle diameter | efficacy in reducing ankle diameter compared with Enbrel [2]: more effective in reducing the ankle diameter than Enbrel | binding to histamine type 1 receptor [4]: able to bind histamine type 1 receptor | Brain Penetration Classification (MDR1-MDCK [1]): Low (3) A-B Papp > 3.0 and Efflux Ratio > 10: Low) | ability to inhibit proliferation of RPMI cells [3]: able to inhibit the proliferation of RPMI cells

CC(=O)NCCN1CCC(CCCN2c3ccccc3Sc3ccc(C(F)(F)F)cc32)CC1 [ICI-00850]
Brain Penetration Classification (MDR1-MDCK [1]): Low (3) A-B Papp > 3.0 and Efflux Ratio > 10: Low)

FC(F)(F)c1ccc2c(c1)N(CCCCN1CCNCC1)c1ccccc1S2 [ICI-00890]
Brain Penetration Classification (MDR1-MDCK [1]): Low (3) A-B Papp > 3.0 and Efflux Ratio > 10: Low)

N#Cc1ccc2c(c1)N(CCCN1CCN(CCN)CC1)c1ccccc1S2 [ICI-00894]
Brain Penetration Classification (MDR1-MDCK [1]): Low (3) A-B Papp > 3.0 and Efflux Ratio > 10: Low)

OCCN1CCN(CCCN2c3ccccc3Sc3ccc(C(F)(F)F)cc32)CC1 [ICI-01175, fluphenazine, reference compound]
Brain Penetration Classification (MDR1-MDCK [1]): High (1) A-B Papp > 3.0 and Efflux Ratio < 3.0: High)

OCCN1CCN(CCCN2c3ccccc3Sc3ccc(C(F)(F)F)cc32)CC1 [ICI-01176]
% Recovery A-B (MDR1-MDCK [1]; MDR1-MDCK, A-B direction): 35% | Papp A-B (MDR1-MDCK [1]; MDR1-MDCK, A-B direction): 0.78 ×10⁻⁶ cm/s | % Recovery B-A (MDR1-MDCK [1]; MDR1-MDCK, B-A direction): 55% | Papp B-A (MDR1-MDCK [1]; MDR1-MDCK, B-A direction): 34.2 ×10⁻⁶ cm/s | Efflux (MDR1-MDCK [1]; MDR1-MDCK, efflux ratio): 44 | Brain Penetration Classification (MDR1-MDCK [1]): Low (3) A-B Papp > 3.0 and Efflux Ratio > 10: Low)

CN(C)CCCN1CCC(CCCN2c3ccccc3Sc3ccc(C(F)(F)F)cc32)CC1 [ICI-01505]
Brain Penetration Classification (MDR1-MDCK [1]): Low (3) A-B Papp > 3.0 and Efflux Ratio > 10: Low)
